Measurements as given in patent EP3696177A1, “HETEROCYCLIC COMPOUNDS FOR THE CONTROL OF INVERTEBRATE PESTS” (BASF SE, priority 2019, dated 2020).
Where two headings read alike, the source gives them in different places.

Experiments:
Type in all cases: in vivo
[1] = test system: Caenorhabditis elegans; experiment: Caenorhabditis elegans liquid diet microtiter plate test; settings: 96 h, read-out: mortality in comparison with untreated controls (nematode motility (mortality))
[2] = test system: Myzus persicae; experiment: Green peach aphid (Myzus persicae) artificial diet/membrane systemic test; settings: 72 h, read-out: mortality in comparison with untreated controls
[3] = test system: Aedes aegypti; experiment: whole plant or invertebrate; settings: 48 h, A. aegypti larvae, incubated 2 days, read-out: mortality in comparison with untreated controls (larval mortality)
[4] = test system: Tetranychus kanzawai; experiment: Red spider mite (Tetranychus kanzawai) spray test on cowpea beans; settings: 72 h, read-out: mortality in comparison with untreated controls
[5] = test system: Aphis craccivora; experiment: Cowpea aphid (Aphis craccivora) spray test on potted cowpea plants; settings: aphids of various stages, after 72 hours, read-out: mortality in comparison with untreated controls
Protocol: The active compound is dissolved at the desired concentration in a mixture of 1:1 (vol: vol) distilled water: acetone. Surfactant (Kinetic) is added at a rate of 0.01% (vol/vol). The test solution is prepared at the day of use.
Potted cowpea plants are colonized with approximately 30 - 50 aphids of various stages by man-ually transferring aphid-infested leaf clippings 24 hours before application. Plants are sprayed with the test solutions using a DeVilbiss® hand atomizer at 20- 30 psi (≈ 1.38 to 2.07 bar) after the pest population has been checked. Treated plants are maintained on light carts at about 25- 26°C. Estimate percent mortality is assessed after 72 hours.

[6] = test system: Nephotettix virescens; experiment: Rice green leafhopper (Nephotettix virescens) spray test on rice seedlings; settings: adults, after 72 hours, read-out: mortality in comparison with untreated controls
Protocol: Four to five-week old rice seedlings with cut upper leaf portion are cleaned and washed 24 hours before spraying. The active compounds are formulated in 1:1 acetone:water (vol:vol), and 0.01% vol/vol surfactant (Kinetic) is added. Potted rice seedlings are sprayed with 5-6 ml test solution, air dried, covered with Mylar cages and inoculated with 10 adults. Treated rice plants are kept at about 28-29°C and relative humidity of about 50-60%. Percent mortality is recorded after 72 hours.

[7] = test system: Anthonomus grandis; experiment: Boll weevil (Anthonomus grandis) insect diet microtiter plate test; settings: 120 h, read-out: mortality in comparison with untreated controls (egg and larval mortality)
[8] = test system: dichromothrips corbetti; experiment: Orchid thrips floral-immersion test; settings: 72 h, read-out: mortality in comparison with untreated controls
[9] = test system: Heliothis virescens; experiment: Tobacco budworm (Heliothis virescens) insect diet microtiter plate test; settings: 120 h, read-out: mortality in comparison with untreated controls (egg and larval mortality)
[10] = test system: Plutella xylostella; experiment: Diamond back moth (Plutella xylostella) cabbage leaf disc dip test; settings: foliar, 72 h, read-out: mortality in comparison with untreated controls
[11] = test system: Nezara viridula; experiment: Green soldier stink bug (Nezara viridula) soybean pod spray test; settings: 120 h, late 3rd instar N. viridula, after 5 days, read-out: mortality in comparison with untreated controls
Protocol: The active compound is dissolved at the desired concentration in a mixture of 1:1 (vol:vol) distilled water: aceteone. Surfactant (Kinetic) is added at a rate of 0.01% (vol/vol).The test solution is prepared at the day of use.
Soybean pods are placed in 90 x 50 mm glass Petri dishes lined with moistened filter paper and inoculated with ten late 3rd instar N. viridula. Using a hand atomizer, an approximately 2 ml solution is sprayed into each Petri dish. Treated set-up is kept at about 25-26°C and relative humidity of about 65-70%. Percent mortality is recorded after 5 days.

[12] = test system: Megoura viciae; experiment: Vetch aphid (Megoura viciae) broad bean leaf disk test; settings: foliar, 120 h, read-out: mortality in comparison with untreated controls

CCN1C(=O)SC(NC(=O)c2ccc(C3=NCC(c4cc(Cl)c(F)c(Cl)c4)(C(F)(F)F)C3)c3c2CCC3)C1=O (stereo not drawn) [Compound I-2-1]
> 75%: mortality at 2500 ppm [1] | mortality at 2500 ppm [2] | mortality at 2500 ppm [3] | mortality at 300 ppm ([4]; topical) | mortality at 300 ppm [5] | mortality at 300 ppm [6] | mortality at 2500 ppm [7] | mortality at 300 ppm [8] | mortality at 2500 ppm [9] | mortality at 300 ppm [10] | mortality at 300 ppm [11] | mortality at 2500 ppm [12]

CN1COC(CNC(=O)c2ccc(C3=NOC(c4cc(Cl)c(F)c(Cl)c4)(C(F)(F)F)C3)c3c2CCC3)C1=O (stereo not drawn) [Compound I-3-1]
> 75%: mortality at 2500 ppm [1] | mortality at 2500 ppm [2] | mortality at 2500 ppm [3] | mortality at 300 ppm ([4]; topical) | mortality at 300 ppm [5] | mortality at 300 ppm [6] | mortality at 2500 ppm [7] | mortality at 300 ppm [8] | mortality at 2500 ppm [9] | mortality at 300 ppm [10] | mortality at 300 ppm [11] | mortality at 2500 ppm [12]

CN1COC(CNC(=O)c2ccc(C3=NOC(c4cc(Cl)c(F)c(Cl)c4)(C(F)(F)F)C3)cc2Cl)C1=O (stereo not drawn) [Compound I-3-5, 2-chloro-4-[5-(3,5-dichloro-4-fluoro-phenyl)-5-(trifluoromethyl)-4H-isoxazol-3-yl]-N-[(3-methyl-4-oxo-oxazolidin-5-yl)methyl]benzamide]
> 75%: mortality at 2500 ppm [1] | mortality at 2500 ppm [2] | mortality at 2500 ppm [3] | mortality at 300 ppm [4] | mortality at 300 ppm [5] | mortality at 300 ppm [6] | mortality at 2500 ppm [7] | mortality at 300 ppm [8] | mortality at 2500 ppm [9] | mortality at 300 ppm [10] | mortality at 300 ppm [11] | mortality at 2500 ppm [12]
